Results on eight molecules are retold here after ChEMBL document CHEMBL1201862, “PubChem BioAssay data set” (2004).

Molecules are shown by their SMILES.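 Briefly, cells in 96-well plates were exposed to five compound concentrations for 48 h, and endpoints were estimated by linear interpolation. GI50: concentration for 50% inhibition of growth.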 The source made the active and inactive calls. Cut-off read from the data, not from the text of the source: active = GI50 up to about 1.1 µM and inactive = higher.

Among the test systems are OVCAR-3; OVCAR-8; COLO 205; SR; NCI-H23; SNB-19; BT-549; DU-145; NCI-H522; CAKI-1; U-251; IGROV-1; UACC-257; MDA-MB-435; PC-3; NCI/ADR-RES; ACHN; OVCAR-4; HCT-116; HL-60.
Holding throughout (test): growth of human tumour cells (NCI), 48 h

As to `NC(=O)CSc1nc2ccccc2c(=O)n1N`, the GI50 in the assay on OVCAR-3, with OVCAR-8, in the assay with COLO 205, in the assay on SR, in the assay on NCI-H23 and in the assay on SNB-19 was > 100 µM (inactive) each time. The GI50 in the assay with BT-549, in the assay with DU-145, in the assay with NCI-H522, with CAKI-1, in the assay on U-251 and in the assay with IGROV-1 was > 100 µM (inactive) each time. The GI50 in the assay with UACC-257, with MDA-MB-435, in the assay with PC-3, in the assay on NCI/ADR-RES, in the assay with ACHN and with OVCAR-4 was > 100 µM (inactive) in each case. Moreover, the GI50 with HCT-116 was > 100 µM (inactive).
Consider `OCCCCn1cc(Cn2ncc3c(NCc4ccccc4)ncnc32)nn1`, for which the GI50 is > 100 µM (inactive) with OVCAR-3; > 100 µM (inactive) in the assay with OVCAR-8; > 100 µM (inactive) in the assay on COLO 205; 15.9 µM (inactive) in the assay on SR; > 100 µM (inactive) in the assay on NCI-H23; > 100 µM (inactive) in the assay with SNB-19. The GI50 in the assay with BT-549, with DU-145, with NCI-H522, in the assay with CAKI-1, in the assay on U-251 and in the assay with IGROV-1 was > 100 µM (inactive) throughout. The GI50 with UACC-257 was > 100 µM (inactive); with MDA-MB-435 it was 33.7 µM (inactive); in the assay with PC-3, > 100 µM (inactive); in the assay with NCI/ADR-RES, > 100 µM (inactive); in the assay on ACHN, > 100 µM (inactive); in the assay on OVCAR-4, > 100 µM (inactive). Further, the GI50 in the assay on HCT-116 is > 100 µM (inactive).
`N#CCCSC(=S)C1CCCC1=N` (configuration not stated): the GI50 in the assay on OVCAR-3, with HL-60, with OVCAR-8, with COLO 205, with NCI-H23 and in the assay on SNB-19 was > 100 µM (inactive) in each case. The GI50 with BT-549, in the assay on DU-145, in the assay with NCI-H522, in the assay with CAKI-1, with U-251 and with IGROV-1 was > 100 µM (inactive) throughout. The GI50 with UACC-257, in the assay on MDA-MB-435, with PC-3, with NCI/ADR-RES, with ACHN and with OVCAR-4 was > 100 µM (inactive) in each case. In addition, the GI50 with HCT-116 is > 100 µM (inactive).
Take `C(=N\c1ccc(-c2nc3ccccc3o2)cc1)/c1ccco1`: the GI50 with OVCAR-8 was > 100 µM (inactive); in the assay with COLO 205, 37.7 µM (inactive); in the assay on SR, 65.9 µM (inactive); in the assay on NCI-H23, 78.2 µM (inactive); in the assay with SNB-19 it was > 100 µM (inactive); in the assay on BT-549, 77.4 µM (inactive). The GI50 with DU-145 is 75 µM (inactive); in the assay on NCI-H522, 44.2 µM (inactive); in the assay on CAKI-1, 40 µM (inactive); in the assay on IGROV-1, 49.4 µM (inactive); with UACC-257 it was 48.3 µM (inactive); in the assay with MDA-MB-435, 75.9 µM (inactive). In addition, the GI50 with PC-3 is 55.7 µM (inactive); with NCI/ADR-RES, 61.7 µM (inactive); in the assay with ACHN, 49.7 µM (inactive); with OVCAR-4 it was 57.4 µM (inactive); with HCT-116, 59.6 µM (inactive).
As for `CC(C#N)NCc1ccc(C(C)NC(C)C#N)cc1` (configuration not stated), the GI50 in the assay on OVCAR-3, with HL-60, in the assay with OVCAR-8, in the assay on COLO 205, in the assay with NCI-H23 and in the assay on SNB-19 was > 100 µM (inactive) throughout. Also, the GI50 in the assay with BT-549, in the assay on DU-145, with NCI-H522, in the assay on CAKI-1, with U-251 and in the assay with IGROV-1 was > 100 µM (inactive) throughout. Further, the GI50 with UACC-257, with MDA-MB-435, with PC-3, in the assay with NCI/ADR-RES, in the assay on ACHN and in the assay on OVCAR-4 was > 100 µM (inactive) in each case. For the same molecule, the GI50 in the assay with HCT-116 was > 100 µM (inactive).
`CCC(C)C(NC(=O)C(CCCC[N+](=N)N)NC(=O)C(CCCC[N+](=N)N)NC(=O)c1ccc(OC)cc1)C(=O)NC(CCCC[N+](=N)N)C(=O)N1CCCC1C(=O)NC(CCCCN)C(=O)NC(CC(C)C)C(N)=O` (configuration not stated): the GI50 with OVCAR-3, in the assay with OVCAR-8, with COLO 205, with SR, in the assay on NCI-H23 and with SNB-19 was > 100 µM (inactive) each time. Also, the GI50 in the assay with BT-549, with DU-145, with NCI-H522, with CAKI-1, with U-251 and with UACC-257 was > 100 µM (inactive) each time. The GI50 with MDA-MB-435, in the assay on PC-3, with NCI/ADR-RES, in the assay with ACHN, in the assay with OVCAR-4 and in the assay on HCT-116 was > 100 µM (inactive) throughout.
Take `CC1=C(C)C(=O)C(C2=CC(=O)c3ccccc3C2=O)=C(C2=CC(=O)c3ccccc3C2=O)C1=O`: the GI50 was 0.234 µM (active) with HL-60; 3.64 µM (inactive) in the assay on OVCAR-8; 1.99 µM (inactive) with COLO 205; 8.13 µM (inactive) with NCI-H23; 4.54 µM (inactive) with SNB-19; 18.7 µM (inactive) in the assay with BT-549. The GI50 in the assay with DU-145 is 3.21 µM (inactive); with NCI-H522, 2.85 µM (inactive); in the assay on CAKI-1 it was 2.95 µM (inactive); with U-251, 6.43 µM (inactive); with IGROV-1, 7.31 µM (inactive); in the assay on UACC-257, 8.2 µM (inactive). Besides, the GI50 in the assay on MDA-MB-435 is 0.352 µM (active); with PC-3, 5.74 µM (inactive); with NCI/ADR-RES it was 1.68 µM (inactive); with ACHN, 3.27 µM (inactive); in the assay on OVCAR-4, 5.04 µM (inactive); with HCT-116 it was 3.6 µM (inactive).
As for `CCOC(=O)/C=C(\C(=O)OCC)n1cc(C)c(=O)n(Cc2cn(COCCOC(C)=O)nn2)c1=O`, the GI50 in the assay with OVCAR-3 was 13.2 µM (inactive); in the assay with OVCAR-8 it was 8.43 µM (inactive); with COLO 205, 2.86 µM (inactive); in the assay with SR it was 1.44 µM (inactive); with NCI-H23, 14.7 µM (inactive); with SNB-19, 19 µM (inactive). Further, the GI50 in the assay on BT-549 is 10.6 µM (inactive); with DU-145, 34.9 µM (inactive); with CAKI-1, 2.84 µM (inactive); in the assay on U-251 it was 16.8 µM (inactive); with IGROV-1 it was 16.7 µM (inactive); in the assay with UACC-257, 17.4 µM (inactive). For the same molecule, the GI50 in the assay on MDA-MB-435 was 6.55 µM (inactive); in the assay on PC-3, 20 µM (inactive); in the assay with NCI/ADR-RES, 22.6 µM (inactive); with ACHN it was 7.62 µM (inactive); in the assay on OVCAR-4 it was 23.3 µM (inactive); with HCT-116, 20.5 µM (inactive).
